Results published in PubChem BioAssay (NCI).
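Five compound concentrations were applied to cells in 96-well plates for 48 hours; endpoints were derived by simple linear interpolation of the resulting dose-response curve. At the TGI there is no net growth.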

How the values were obtained:
Assay in all cases: DTP human tumour cell line panel, 48 h
MDA-N = test system: MDA-N
HCT-116 colon = test system: HCT-116 colon
OVCAR-4 ovarian = test system: OVCAR-4 ovarian
UO-31 renal = test system: UO-31 renal
HL-60(TB) leukemia = test system: HL-60(TB) leukemia
HCC-2998 colon = test system: HCC-2998 colon
786-0 renal = test system: 786-0 renal
MDA-MB-435 = test system: MDA-MB-435
SN12C renal = test system: SN12C renal
SF-268 CNS = test system: SF-268 CNS
SK-MEL-5 melanoma = test system: SK-MEL-5 melanoma
A498 renal = test system: A498 renal
BT-549 breast = test system: BT-549 breast
RPMI-8226 leukemia = test system: RPMI-8226 leukemia
SK-MEL-28 melanoma = test system: SK-MEL-28 melanoma
A549 NSCLC = test system: A549 NSCLC
UACC-62 melanoma = test system: UACC-62 melanoma
SK-MEL-2 melanoma = test system: SK-MEL-2 melanoma
PC-3 prostate = test system: PC-3 prostate
SK-OV-3 ovarian = test system: SK-OV-3 ovarian
RXF 393 renal = test system: RXF 393 renal
K-562 leukemia = test system: K-562 leukemia
OVCAR-5 ovarian = test system: OVCAR-5 ovarian
HS 578T breast = test system: HS 578T breast
NCI-H460 lung = test system: NCI-H460 lung
M14 melanoma = test system: M14 melanoma
SW-620 colon = test system: SW-620 colon
UACC-257 melanoma = test system: UACC-257 melanoma
MOLT-4 leukemia = test system: MOLT-4 leukemia
HT29 colon = test system: HT29 colon
CCRF-CEM leukemia = test system: CCRF-CEM leukemia
NCI-H522 lung = test system: NCI-H522 lung
SNB-19 CNS = test system: SNB-19 CNS
EKVX NSCLC = test system: EKVX NSCLC
NCI/ADR-RES ovarian = test system: NCI/ADR-RES ovarian
HCT-15 colon = test system: HCT-15 colon
ACHN renal = test system: ACHN renal
NCI-H23 lung = test system: NCI-H23 lung
MALME-3M melanoma = test system: MALME-3M melanoma
CAKI-1 renal = test system: CAKI-1 renal
COLO 205 colon = test system: COLO 205 colon
OVCAR-3 ovarian = test system: OVCAR-3 ovarian
U251 CNS = test system: U251 CNS
DU-145 prostate = test system: DU-145 prostate
OVCAR-8 ovarian = test system: OVCAR-8 ovarian
KM12 colon = test system: KM12 colon
TK-10 renal = test system: TK-10 renal
NCI-H226 lung = test system: NCI-H226 lung
SNB-75 CNS = test system: SNB-75 CNS
SF-295 CNS = test system: SF-295 CNS
MDA-MB-231 breast = test system: MDA-MB-231 breast
HOP-92 NSCLC = test system: HOP-92 NSCLC
IGROV1 ovarian = test system: IGROV1 ovarian
LOX IMVI melanoma = test system: LOX IMVI melanoma
MCF7 breast = test system: MCF7 breast
SF-539 CNS = test system: SF-539 CNS
SR leukemia = test system: SR leukemia
T-47D breast = test system: T-47D breast
HOP-62 NSCLC = test system: HOP-62 NSCLC

Compound `CC(=O)Nc1c(S(=O)(=O)c2ccccc2)c(C)c(C)n1Cc1ccccc1` has a TGI (MDA-N) of over 100 µM, a TGI (HCT-116 colon) of over 100 µM and a TGI (OVCAR-4 ovarian) of over 100 µM. It also gave a TGI (UO-31 renal) of over 100 µM, a TGI (HL-60(TB) leukemia) of over 100 µM and a TGI (HCC-2998 colon) of over 100 µM. It also gave a TGI (786-0 renal) of over 100 µM, a TGI (MDA-MB-435) of over 100 µM and a TGI (SN12C renal) of over 100 µM. The TGI (SF-268 CNS) was over 100 µM, the TGI (SK-MEL-5 melanoma) was over 100 µM and the TGI (A498 renal) was over 100 µM. For the same compound, the TGI (BT-549 breast) was over 100 µM, the TGI (RPMI-8226 leukemia) was over 100 µM and the TGI (SK-MEL-28 melanoma) was over 100 µM. For the same compound, the TGI (A549 NSCLC) was over 100 µM, the TGI (UACC-62 melanoma) was over 100 µM and the TGI (SK-MEL-2 melanoma) was over 100 µM. The TGI (PC-3 prostate) was over 100 µM, the TGI (SK-OV-3 ovarian) was over 100 µM and the TGI (RXF 393 renal) was over 100 µM. The TGI (K-562 leukemia) was over 100 µM, the TGI (OVCAR-5 ovarian) was over 100 µM and the TGI (HS 578T breast) was over 100 µM. For the same compound, the TGI (NCI-H460 lung) was over 100 µM, the TGI (M14 melanoma) was over 100 µM and the TGI (SW-620 colon) was over 100 µM. It also gave a TGI (UACC-257 melanoma) of over 100 µM, a TGI (MOLT-4 leukemia) of over 100 µM and a TGI (HT29 colon) of over 100 µM. The TGI (CCRF-CEM leukemia) was over 100 µM, the TGI (NCI-H522 lung) was over 100 µM and the TGI (SNB-19 CNS) was over 100 µM. The TGI (EKVX NSCLC) was over 100 µM, the TGI (NCI/ADR-RES ovarian) was over 100 µM and the TGI (HCT-15 colon) was over 100 µM. It also gave a TGI (ACHN renal) of over 100 µM, a TGI (NCI-H23 lung) of over 100 µM and a TGI (MALME-3M melanoma) of over 100 µM. The TGI (CAKI-1 renal) was over 100 µM, the TGI (COLO 205 colon) was over 100 µM and the TGI (OVCAR-3 ovarian) was over 100 µM. The TGI (U251 CNS) was over 100 µM, the TGI (DU-145 prostate) was over 100 µM and the TGI (OVCAR-8 ovarian) was over 100 µM. It also gave a TGI (KM12 colon) of over 100 µM, a TGI (TK-10 renal) of over 100 µM and a TGI (NCI-H226 lung) of over 100 µM. The TGI (SNB-75 CNS) was over 100 µM, the TGI (SF-295 CNS) was over 100 µM and the TGI (MDA-MB-231 breast) was over 100 µM. It also gave a TGI (HOP-92 NSCLC) of over 100 µM and a TGI (IGROV1 ovarian) of over 100 µM.
Compound `CC(=O)NC(C)(C)C1CCC(C)=C(c2ccccc2)C1` (configuration not stated) has a TGI (MDA-N) of over 100 µM, a TGI (HCT-116 colon) of over 100 µM and a TGI (OVCAR-4 ovarian) of over 100 µM. The TGI (UO-31 renal) was over 100 µM, the TGI (HL-60(TB) leukemia) was over 100 µM and the TGI (HCC-2998 colon) was over 100 µM. For the same compound, the TGI (786-0 renal) was over 100 µM, the TGI (MDA-MB-435) was over 100 µM and the TGI (SN12C renal) was over 100 µM. The TGI (LOX IMVI melanoma) was over 100 µM, the TGI (SF-268 CNS) was over 100 µM and the TGI (SK-MEL-5 melanoma) was over 100 µM. For the same compound, the TGI (BT-549 breast) was over 100 µM, the TGI (MCF7 breast) was over 100 µM and the TGI (SK-MEL-28 melanoma) was over 100 µM. For the same compound, the TGI (A549 NSCLC) was over 100 µM, the TGI (UACC-62 melanoma) was over 100 µM and the TGI (PC-3 prostate) was over 100 µM. For the same compound, the TGI (SK-OV-3 ovarian) was over 100 µM, the TGI (K-562 leukemia) was over 100 µM and the TGI (OVCAR-5 ovarian) was over 100 µM. It also gave a TGI (NCI-H460 lung) of over 100 µM, a TGI (M14 melanoma) of over 100 µM and a TGI (SW-620 colon) of over 100 µM. The TGI (UACC-257 melanoma) was over 100 µM, the TGI (MOLT-4 leukemia) was over 100 µM and the TGI (HT29 colon) was over 100 µM. The TGI (CCRF-CEM leukemia) was over 100 µM, the TGI (NCI-H522 lung) was over 100 µM and the TGI (SNB-19 CNS) was over 100 µM. The TGI (EKVX NSCLC) was over 100 µM, the TGI (HCT-15 colon) was over 100 µM and the TGI (NCI-H23 lung) was over 100 µM. The TGI (SF-539 CNS) was over 100 µM, the TGI (COLO 205 colon) was over 100 µM and the TGI (OVCAR-3 ovarian) was over 100 µM. For the same compound, the TGI (U251 CNS) was over 100 µM, the TGI (DU-145 prostate) was over 100 µM and the TGI (OVCAR-8 ovarian) was over 100 µM. For the same compound, the TGI (KM12 colon) was over 100 µM, the TGI (TK-10 renal) was over 100 µM and the TGI (SR leukemia) was over 100 µM. It also gave a TGI (T-47D breast) of over 100 µM, a TGI (SNB-75 CNS) of over 100 µM and a TGI (HOP-62 NSCLC) of over 100 µM. It also gave a TGI (SF-295 CNS) of over 100 µM, a TGI (MDA-MB-231 breast) of over 100 µM and a TGI (HOP-92 NSCLC) of 68.4 µM. The TGI (IGROV1 ovarian) was over 100 µM.
